Experimental data: patent publication US7098210B2, “2h-pyridazine-3-one derivatives, pharmaceutical compositions containing the same and a process for the preparation of the active ingredient” (Egis Gyógyszergyár Rt., priority 2001, dated 2006)

Experiments:
male Wistar rats [1] = assay: Inhibition of conditioned avoiding response (CAR), shuttle-box; format: in vivo, rat; conditions: compound given 1 hour before the series of experiment, 50% inhibition dose
Description: 1.1 Inhibition of Conditioned Avoiding Response (CAR)
The antipsychotic (neuroleptic) effect was measured by determining the inhibition of the learned conditioned avoiding reflex. At the beginning of teaching, male Wistar rats of 120 to 150 g body weight were used for the experiments. The experimental apparatus was the so called shuttle-box consisting of two rooms of 24 cm×24.5 cm×23 cm size separated from each other by a wall. The two rooms were connected by a gate of 6 cm×9 cm size. During the test, the task of the animals was to pass from one room to the other through the gate in case of a suitable warning stimulus, thus, avoiding the punishing (unconditioned) stimulus. The warning (conditioned) stimulus appeared in the room where the animal was staying. The conditioned stimulus (CS) was a gleaming (1 Hz) white light lasting for 15 seconds. The unconditioned stimulus (US) was a randomized electric shock to the sole with an intensity of 0.6 mA which appeared in the last 5 seconds of the conditioned stimulus. Passing from one room of the shuttle-box to the other during the conditioned stimulus was considered as avoiding response, while passing during the unconditioned stimulus was considered as escaping response. Both responses stopped the actual stimulus, and the trial was finished. The intertrial interval (ITI) was 15 seconds. 80 trials were performed on a day. The learning performance was measured as the ratio of the number of the successful avoiding responses to the total number of trials in percentage. The effect of the neuroleptics was determined on the animals showing a performance of at least 75% after the stabilization of the conditioned reflex. The test compounds were administered to the rats once weekly, 1 hour before the series of experiment. When evaluating the effect of the neuroleptics in each group, the performance of the animals on the day before was used as control. […] These values are given in Table I. Chlorpromazine [2-chloro-10-(3dimethylaminopropyl)phenothiazine] and clozapine [8-chloro-11-(4methyl-1-piperazinyl)-5H-dibenzo[b,e][1,4]diazepine] were used as the reference substance.

male NMRI mice [2] = assay: Inhibition of apomorphine induced stereotypy on mouse; format: in vivo; conditions: apomorphine hydrochloride subcutaneously 60 min after treatment
Description: (§1) 1.2 Inhibition of Apomorphine Stereotypy and Climbing on Mouse
(§2) Male NMRI mice of 20 to 24 g body weight were used in the experiments. The animals were treated with the carrier and the test substance (20 ml of volume/kg body weight), respectively, then 30 minutes later, for habituation, they were placed into wire screen cages of 12 cm×12 cm×12 cm size which could be covered by plexyglass plates. After 30 minutes, […] of apomorphine hydrochloride were administered to the mice in a volume of 10 ml/kg, subcutaneously. The measurement of the stereotyped behaviour was begun at once after the treatment with apomorphine and continued for 25 minutes. The measurement was performed by means of a scale having five grades: • 0 point: normal behaviour corresponding to that of the control animals. • 1 point: permanent exploration activity, smelling or moving the head sideways from time to time. • 2 points: intensive continuous head movement or smelling, periodical exploration activity. • 3 points: licking, biting or gnawing from time to time, alternating with intensive smelling or head movement, locomotor activity lasting for a very short time. • 4 points: continuous intensive licking and/or gnawing in the same place without any locomotor or exploration activity.
Evaluation of stereotypy: in case of each animal, the highest point value obtained during the observation was taken into consideration and recorded, respectively. From the maximum point value, median was calculated for each group which was related to the median of the control group to calculate the effect in percentage.
(§3) In this case again chlorpromazine and clozapine were used as the reference substance.

male NMRI mice [3] = assay: Inhibition of apomorphine induced climbing on mouse; format: in vivo; conditions: 1 h, po., apomorphine hydrochloride subcutaneously 60 min after treatment
Description: as §1, §2
The posture when the mouse climbed up on the vertical wall with at least three legs was considered as climbing. The evaluation was performed in the last ten minutes of the observation on the basis yes/no (+/−).
The frequency was calculated in each group, then the effect was determined in percentage considering the result obtained for the control group as 100%.
as §3

mice = assay: Inhibition of hypermotility induced by phencyclidine (PCP); format: in vivo; conditions: Mus musculus, 1 h, sc., 3 mg/kg phencyclidine intraperitoneally 60 minutes after treatment, read-out: ID50 in mg/kg sc.
male Wistar rats [4] = assay: Cataleptogenous effect (method of Morpurgo); format: in vivo, rat; conditions: for Ratio Cat/CAR (MED/ID50): catalepsy MED divided by CAR ID50; for MED in mg/kg po.: rats, minimum effective dosis inducing catalepsy
Source text: The cataleptogenous effect was studied according to the method of Morpurgo [Morpurgo, C., Arch. Int. Pharmacodyn., 137, 84 ([…])]. Male Wistar rats of 220 to 240 g body weight have been used for the examinations. The fore-feet of the rats were placed on a gum stopper, one by one, and it was observed how the animal tolerated the unusual posture. The normal (non-cataleptic) animal removes the foot from the stopper during the measuring time of 10 seconds. If the animal keeps the foot on the stopper during the measuring time, this stiff state accompanied by myotonia is evaluated as catalepsy.

[5] = system: isolated right ventricular papillary muscle of the rabbit; assay: Cardiotoxic effect: effective refractory period (ERP) in vitro; conditions: for % change of ERP (1 μM): papillary muscle paced at 1 Hz, vs. baseline
Description: The cardiotoxic effect was determined in isolated right ventricular papillary muscle of the rabbit in vitro.
The modified method of Hackett et al., 1990 was used (Hacket, A. M., Mc Donald S. J., P., Schweingruber, F. and Gartwaite, S. M.: Simple in vitro method to characterize antiarrhythmic agents J. Pharmacol. Methods 23, 107–116, 1990).
The effective refractory period (ERP) was measured in isolated right ventricular papillary muscle of the rabbit in vitro.
The contractions of papillary muscle preparations obtained from New Zealand rabbits weighing 2.5–3.2 kg were evaluated. The contractions (isometrically paced at 1 Hz) were recorded by 4-channel Hugo Sachs apparatus. The effects of the test compounds or references were measured in 1 μM concentration.

SMILES	melting point [°C]	Conditioned reflex, ID50 in mg/kg (male Wistar rats [1])	Inhibition of stereotypy, ID50 in mg/kg po. (male NMRI mice [2]) [mg/kg]	ED50 (male NMRI mice [3]) [mg/kg]	ED50 (mice) [mg/kg]	Ratio Cat/CAR (MED/ID50) (male Wistar rats [4])	MED in mg/kg po. (male Wistar rats [4]) [mg/kg]	% change of ERP (1 μM) [5] [%]	cardiotoxic effect (significant prolongation of ERP) ([5]; 1 μM concentration)
Cn1ncc(Cl)c(NCCN2CCC(c3noc4cc(F)ccc34)CC2)c1=O [Example 1, 4-{2-[4-(6-fluoro-1,2-benzisoxazole-3-yl)piperidine-1-yl]ethyl-amino}-5-chloro-2-methyl-2H-pyridazine-3-one]	108 to 109	0.7 mg/kg	0.4	0.3	0.4	–	–	–	–
Cn1ncc(Cl)c(NCCCN2CCC(c3noc4cc(F)ccc34)CC2)c1=O [Example 2, 4-{3-[4-(6-fluoro-1,2-benzisoxazole-3-yl)piperidine-1-yl]propyl-amino}-5-chloro-2-methyl-2H-pyridazine-3-one]	117 to 119	5.8 mg/kg	2.0	0.6	–	–	–	–	–
O=c1[nH]ncc(Cl)c1NCCCN1CCC(c2noc3cc(F)ccc23)CC1 [Example 3, 4-{3-[4-(6-fluoro-1,2-benzisoxazole-3-yl)piperidine-1-yl]propyl-amino}-5-chloro-2H-pyridazine-3-one]	198 to 200	–	1.2	0.8	–	–	–	–	–
Cn1ncc(NCCN2CCC(c3noc4cc(F)ccc34)CC2)c(Cl)c1=O [Example 4, 4-chloro-5-{2-[4-(6-fluoro-1,2-benzisoxazole-3-yl)piperidine-1-yl]ethyl-amino}-2-methyl-2H-pyridazine-3-one]	–	0.3 to 0.5 mg/kg	0.2	0.06	0.07	about 6	3	11.1 ± 1.7	–
Cn1ncc(NCCCN2CCC(c3noc4cc(F)ccc34)CC2)c(Cl)c1=O [Example 5, 4-chloro-5-{3-[4-(6-fluoro-1,2-benzisoxazole-3-yl)piperidine-1-yl]propyl-amino}-2-methyl-2H-pyridazine-3-one]	200 to 202	≦3.0 mg/kg	2.0	0.6	0.46	>3	10	5.3 ± 0.4	–
COc1cc(C(C)=O)ccc1OCCCN1CCC(c2noc3cc(F)ccc23)CC1 [Iloperidone, reference compound]	–	–	–	–	–	–	–	31.9 ± 7.8	considerable and significant cardiotoxic potential
CN(C)CCCN1c2ccccc2Sc2ccc(Cl)cc21 [chlorpromazine, 2-chloro-10-(3dimethylaminopropyl)phenothiazine, reference compound]	–	13.2 mg/kg	6.8	6.1	–	–	–	–	–
CN1CCN(C2=Nc3cc(Cl)ccc3Nc3ccccc32)CC1 [clozapine, 8-chloro-11-(4methyl-1-piperazinyl)-5H-dibenzo[b,e][1,4]diazepine, reference compound]	–	21.3 mg/kg	35.4	11.8	2.9	–	–	–	–
O=C(CCCN1CCC(O)(c2ccc(Cl)cc2)CC1)c1ccc(F)cc1 [haloperidol, 4-(4-chlorophenyl-4-hydroxy-1-piperidinyl)-1-(4-fluorophenyl)-1-butanone, reference compound]	–	–	–	–	1.2	–	1	–	–

Second part, led by results:

melting point [°C]	SMILES	Conditioned reflex, ID50 in mg/kg (male Wistar rats [1])	Inhibition of stereotypy, ID50 in mg/kg po. (male NMRI mice [2]) [mg/kg]	ED50 (male NMRI mice [3]) [mg/kg]	ED50 (mice) [mg/kg]	Ratio Cat/CAR (MED/ID50) (male Wistar rats [4])	MED in mg/kg po. (male Wistar rats [4]) [mg/kg]	% change of ERP (1 μM) [5] [%]	cardiotoxic effect (significant prolongation of ERP) ([5]; 1 μM concentration)
200 to 202	Cn1ncc(NCCN2CCC(c3noc4cc(F)ccc34)CC2)cc1=O [Example 6, 5-{2-[4-(6-fluoro-1,2-benzisoxazole-3-yl)piperidine-1-yl]ethyl-amino}-2-methyl-2H-pyridazine-3-one]	–	–	–	0.9	–	>30	6.1 ± 1.9	–
163 to 165	Cn1ncc(NCCCN2CCC(c3noc4cc(F)ccc34)CC2)cc1=O [Example 7, 5-{3-[4-(6-fluoro-1,2-benzisoxazole-3-yl)piperidine-1-yl]propyl-amino}-2-methyl-2H-pyridazine-3-one]	–	–	–	0.4	–	~30	–	–
229 to 231	O=c1[nH]ncc(NCCN2CCC(c3noc4cc(F)ccc34)CC2)c1Cl [Example 8, 5-{2-[4-(6-fluoro-1,2-benzisoxazole-3-yl)piperidine-1-yl]ethyl-amino}-4-chloro-2H-pyridazine-3-one]	–	–	–	0.2	–	~10	1.5 ± 1.5	–
97 to 99	O=c1cc(NCCN2CCC(c3noc4cc(F)ccc34)CC2)cn[nH]1 [Example 9, 5-{2-[4-(6-fluoro-1,2-benzisoxazole-3-yl)piperidine-1-yl]ethyl-amino}-2H-pyridazine-3-one]	–	–	–	1.4	–	>10	0.4 ± 1.1	–
